According to the supplement of paper PMC10949913:

Legend:
Assay in all cases: area under concentration-response curve (viability) (AUC (a.u.)); higher = less active
Conditions in all cases: 48 h
CU-ACC2 = system: CU-ACC2
How it was run: (§1)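 AC50 and area under the curve values derive from fitted concentration-response curves, restricted to inhibitory or non-responding curve classes. The curves came from three adrenocortical carcinoma cell lines in 1,536-well plates, each receiving 23 nL of every library compound at 11 concentrations. Viability was read by CellTiter-Glo luminescence after 48 h, normalised per plate to vehicle and empty-well controls.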

NCI-H295R = system: NCI-H295R
How it was run: as §1

CU-ACC1 = system: CU-ACC1
How it was run: as §1

| Compound | area under concentration-response curve (CU-ACC2) | area under concentration-response curve (NCI-H295R) | area under concentration-response curve (CU-ACC1) |
| --- | --- | --- | --- |
| CC1=C(C=CC=C1)N2/N=C(\C=C/C2=O)C3=C4NC[C@@H](CO)C[N]4N=C3C5=CC=C(F)C=C5 | 422 | 435 |  |
| Nc1cccc([S+](=O)([O-])N2CCCN([S+](=O)([O-])c3ccc4c(c3)OCCO4)CC2)c1 | 634 | 546 |  |
| CCc1ccc2nc(Nc3cc(Cc4ccccc4)nc(N[C@H]4CC[C@H](O)CC4)n3)sc2c1 | 620 | 580 |  |
| C/C(NNC(=O)c1cccc([S+](=O)([O-])N2CCOCC2)c1)=C1\C=C(Cl)C=CC1=O | 585 | 545 |  |
| CN1C(=O)COc2c(C(=O)NC3CN4CCC3CC4)cc(Cl)cc21 (stereo unspecified) | 550 | 533 |  |
| CC(=O)Oc1ccccc1C(=O)Nc1ncc([N+](=O)[O-])s1 | 634 | 590 |  |
| CCCCOc1ccc(CC(=O)NO)cc1 | 631 | 573 |  |
| C=Cc1cc(O)cc2nc(-c3ccc(O)c(F)c3)oc12 | 587 | 550 |  |
| OC(=O)C/1=C/C(=O)NC(=O)N1 | 530 | 529 |  |
| O=C(c1ccc(F)cc1)N1CCC[C@H](c2nc(-c3ccc(F)cc3)no2)C1 | 624 | 576 |  |
| Cn1c(-c2ccccc2C(F)(F)F)nnc1C12CCC(c3noc(C4CC(F)(F)C4)n3)(CC1)CC2 | 594 | 546 |  |
| COc1ccc(C(=O)CC(=O)c2ccc(C(C)(C)C)cc2)cc1 | 595 | 543 |  |
| C[C@]12CCC\3=C\4CCC(=O)\C=C4CC[C@H]3[C@@H]1CC[C@@]2(O)CC#N | 649 | 606 |  |
| COC1=CC2=C(C=C1OCCCN3CCCC3)\N=C(N)/C24CCC4 | 578 | 547 |  |
| CCC(c1ccc(O)cc1)C(CC)c1ccc(O)cc1 (stereo unspecified) | 656 | 607 |  |
| COc1cc2ncnc(Nc3cccc(Cl)c3F)c2cc1OC(=O)N1CCN(C)C[C@H]1C | 610 | 531 |  |
| NNC(=O)c1ccncc1 | 500 | 554 |  |
| NC(=O)C/1=C(O)/[C@]2(O)[C@@H](C[C@@H]\3CC4=C(C(=CC=C4)O)\C(=C3C2=O)O)CC1=O | 640 | 586 |  |
| O=NN(CCCl)C(=O)NC1CCCCC1 | 503 | 538 |  |
| CC[C@@](C)(Nc1ccnc(-c2c[nH]c3ncccc23)n1)C(=O)NCC(F)(F)F | 589 | 539 |  |

| Compound | area under concentration-response curve (CU-ACC2) | area under concentration-response curve (NCI-H295R) | area under concentration-response curve (CU-ACC1) |
| --- | --- | --- | --- |
| O=C1c2c(O)cc(O)cc2O[C@H](c2ccc(O)c(O)c2)[C@H]1O | 583 | 539 |  |
| O=C(NC[C@H](O)CN1CCc2ccccc2C1)c1ccnc(NC2CCC2)c1 | 535 | 539 |  |
| C[C@]12CCC3c4ccc(O)cc4CCC3C1CCC2=O (stereo partly specified) | 565 | 508 |  |
| CC/1=C/2C[C@H]3C(=C)CCC[C@]3(C)/C=C2OC1=O | 593 | 524 |  |
| CN(C(Cc1ccc(OS(=O)(=O)c2cccc3cnccc23)cc1)C(=O)N1CCN(c2ccccc2)CC1)S(=O)(=O)c1cccc2cnccc12 (stereo unspecified) | 627 | 576 |  |
| CC/1=N/C2=CC=CC(=C2C(=O)N1C3CCC(=O)NC3=O)N (stereo unspecified) | 635 | 575 |  |
| CCC1(c2ccccc2)C(=O)NCNC1=O | 566 | 521 |  |
| C[S+](=O)([O-])c1ccc(-c2cnc(N)c(C(=O)Nc3ccccc3)n2)cc1 | 473 | 534 |  |
| Cn1cnc(-c2cc3nccc(Oc4ccc(NC(=S)NC(=O)Cc5ccccc5)cc4F)c3s2)c1 | 359 | 412 |  |
| CC1CC2=CC=CC=C2N1C(=O)C\C3=N\C(=O)\C=C(/N3)N4CCOCC4 (stereo unspecified) | 579 | 548 |  |
| CCC(=O)Nc1cccc(Oc2nc(Nc3ccc(N4CCN(C)CC4)cc3OC)ncc2Cl)c1 | 523 | 465 |  |
| c1ccc(-c2nn3c(c2-c2ccnc4cc(OCCN5CCOCC5)ccc24)CCC3)nc1 | 496 |  | 479 |
| CCC(=O)OCC(=O)C1(OC(=O)CC)C(C)CC2C3CC\C4=C\C(=O)\C=C/C4(C)C3(F)C(O)CC12C (stereo unspecified) | 613 |  | 528 |
| CNC(=O)c1ccc(N2C(=S)N(c3cnc(C#N)c(C(F)(F)F)c3)C(=O)C23CCC3)cc1F | 565 |  | 505 |
| CCc1nc(-c2cccc(C)c2)c(-c2ccnc(NC(=O)c3ccccc3)c2)s1 | 574 |  | 490 |
| C[C@H](NC(=O)C1=C2N=CC=C[N]2N=C1N)\C3=C\C4=CC=CC(=C4C(=O)N3C5=CC=CC=C5)C#CC6=C[N](C)N=C6 | 608 |  | 511 |
| C[C@]12CC[C@H]3[C@@H](CC[C@@]45O[C@@H]4\C(=C(/C[C@]35C)C#N)O)[C@@H]1CC[C@@H]2O | 590 |  | 571 |
| CC1(CN2CCC(n3c(=O)[nH]c4ccccc43)CC2)OCc2ccccc2-n2cccc21 (stereo unspecified) | 556 |  | 494 |
| CCC[S+]([O-])c1ccc2[nH]c(NC(=O)OC)nc2c1 (stereo unspecified) | 595 |  | 502 |
| CC1=C(/C=C/C(C)=C/C=C/C(C)=C\C(=O)O)C(C)(C)CCC1 | 586 |  | 491 |

| Compound | area under concentration-response curve (CU-ACC2) | area under concentration-response curve (NCI-H295R) | area under concentration-response curve (CU-ACC1) |
| --- | --- | --- | --- |
| Nc1nnc(-c2cccc(Cl)c2Cl)c(N)n1 | 630 |  | 563 |
| O=C(Oc1ccc([N+](=O)[O-])cc1)N1CCN(Cc2cccc(Oc3ccccc3)c2)CC1 | 556 |  | 531 |
| COc1ccnc(C[S+]([O-])c2nc3cc(OC(F)F)ccc3[nH]2)c1OC (stereo unspecified) | 585 |  | 554 |
| O=C(Nc1ccc(OC(F)(F)F)cc1)c1sccc1NCc1ccnc2ccccc12 | 639 |  | 525 |
| CN1CCN(CC1)C2=CC=C(NC3=NC=C4\C=C(\C#N)C(=O)N(C5CCCC5)C4=N3)C=C2 | 588 |  | 548 |
| COc1ncnc(N[S+](=O)([O-])c2ccc(N)cc2)c1OC | 604 |  | 593 |
| N=C1N[C@H]2[C@H](CS[C@H]2CCCCC(=O)O)N1 | 256 |  | 217 |
| CCOC(=O)N[C@@H]1CC[C@@H]2[C@@H](C1)C[C@H]1C(=O)O[C@H](C)[C@H]1[C@H]2/C=C/c1ccc(-c2cccc(F)c2)cn1 | 511 |  | 537 |
| CC[C@H](C)C(=O)O[C@H]1C[C@H](O)\C=C2\C=C/[C@H](C)[C@H](CC[C@@H](O)C[C@@H](O)CC(O)=O)[C@@H]12 | 576 |  | 544 |
| CC[C@@]1([C@@H]2O[C@@H]([C@H]3O[C@@](O)(CO)[C@H](C)C[C@@H]3C)C[C@@H]2C)CC[C@H]([C@]2(C)CC[C@]3(C[C@H](O)[C@@H](C)[C@@H]([C@@H](C)[C@@H](OC)[C@H](C)C(=O)[O-])O3)O2)O1 | 410 |  | 427 |
| CN[C@H]1CN(C[C@@H]1OC)C2=NC3=C(C=C2)C(=O)C(=C\N3C4=NC=CS4)/C(O)=O | 632 |  | 530 |
| CC(C)Cc1ccc(C(C)C(=O)O)cc1 (stereo unspecified) | 583 |  | 539 |
| C[C@H]1[C@H](O)[C@@H](C)/C=C/C=C/CC/C=C/C=C/C=C/C=C/[C@H](O[C@@H]2O[C@H](C)[C@@H](O)[C@H](N)[C@@H]2O)C[C@@H]2O[C@](O)(C[C@@H](O)[C@H](O)CC[C@@H](O)C[C@@H](O)C[C@@H](O)CC(=O)O[C@H]1C)C[C@H](O)[C@H]2C(=O)O | 426 |  | 375 |
| CN(CCOc1ccc(-c2ccc3c(c2)OCO3)cc1C(C)(C)C)CC(=O)O | 486 |  | 498 |
| CCN(c1ccccc1)c1cc(NC)[n+](C)c(C)n1 | 600 |  | 574 |
| CCc1ccc(N(CC(C)C)[S+](=O)([O-])c2ccc(OCC3CCOCC3)c(CO)c2)cc1 | 586 |  | 466 |
| CC(=O)Oc1cc2c(s1)CCN(C(C(=O)C1CC1)c1ccccc1F)C2 (stereo unspecified) | 476 |  | 492 |
| CC(C)(C)NC(=O)[C@H]1CC[C@H]2[C@@H]3CC[C@H]4NC(=O)\C=C/[C@]4(C)[C@H]3CC[C@]12C | 622 |  | 618 |
